The source of these data is patent publication US20200268786A1, “RNA CONTAINING COMPOSITIONS AND METHODS OF THEIR USE” (Icahn School of Medicine at Mount Sinai, priority 2015, published 2020).

For the assay, the system named is human monocyte derived DCs (moDCs). Nature of the assay: cytokine production of human moDCs stimulated with ncRNA (DOTAP liposomal transfection or none). It counts as cell-based. Conditions: DOTAP liposomal transfection, 2 ug/ml ncRNA. The method, then:
PCR products were purified by PCR-Cleanup (Qiagen) and controlled by electrophoresis (0.8% Agarose gel). RNAs were generated by in vitro transcription using the mMESSAGE mMACHINE T7 ultra kit (Ambion) followed by a capping and short polyA reaction. RNAs were then purified using RNA-cleanup (Qiagen), quantified using a nanodrop, and checked by electrophoresis after denaturation at 65° C. for 10 minutes (1 5% Agarose gel).
MoDCs and imBM were both stimulated by i-ncRNA in the same way. The culturing of these cells is described below. Briefly, cells were plated in 96 flat well plates at 200,000 cells per well for primary cells (MoDCs) and 100,000 cells per well for lines (IMBM). i-ncRNA were transfected via liposomes formed using DOTAP (Roche Life Science) at a ratio of 1 μg DNA per 6 μl DOTAP diluted in HBS following the user-guide recommendations. The cells were stimulated using 2 μg/ml of purified i-ncRNA versus 10 μg/ml total RNA. To stimulate the TLR4 pathway, 100 ng/ml Ultrapure LPS (Invivogen) was used for TLR2: 500 ng/ml Pam2CSK4 (Invivogen) for TLR3: 2 μg/ml HMW PolyIC (Invivogen) TLR7/8: 1 μg/ml CLO97 (Invivogen) and 100 ng/ml R848 (Invivogen) TLR9: CpG B-ODN 1826 3 μM or STING CDN 5 μg/ml (Aduro).
Human moDCs: Human monocyte derived DCs were differentiated as previously described (Frleta et al., “HIV-1 Infection-Induced Apoptotic Microparticles Inhibit Human DCs via CD44,” J. Clinical Invest. 122:4685 (2012), which is hereby incorporated by reference in its entirety). Briefly, PBMCs were prepared by centrifugation over Ficoll-Hypaque gradients (BioWhittaker) from healthy donor buffy coats (New York Blood Center). Monocytes were isolated from PBMCs by adherence and then treated with 100 U/ml GM-CSF (Leukine Sanofi Oncology) and 300 U/ml IL-4 (RandD) in RPMI plus 5% human AB serum (Gemini Bio Products). Differentiation media was renewed on day 2 and day 4 of culture. Mature moDCs were harvested for use on days 5 to 7. For all experiments, harvested DCs were washed and equilibrated in serum-free X-Vivo 15 media (Lonza).

For the compound `CCOCc1nc2c(N)nc3ccccc3c2n1CC(C)(C)O` [R848], the IL-6 production entry is listed as “induced a cellular inflammatory response”, the IL-12 production result is listed as “induced a cellular inflammatory response” and the TNFalpha production result is recorded as “induced a cellular inflammatory response”.
Turning to Poly-IC, the IL-6 production result is recorded as “induced a cellular inflammatory response”, the IL-12 production entry is reported as “induced a cellular inflammatory response” and the TNFalpha production entry is given as “induced a cellular inflammatory response”.
